One assay has as its target ErbB2 V777L (Homo sapiens (Human), UniProt P04626, V777L). Briefly: ErbB enzyme assay (CisBio HTRF-KinEASE-TK), ErbB2 V777L. It is filed as biochemical. The method, boiled down: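 HTRF KinEASE-TK tyrosine-kinase read-out of substrate phosphorylation after a final 1 h at ambient temperature, from the 655/620 nm emission ratio.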
For orientation: In TR-FRET formats the signal depends on donor and acceptor labels being close together.

In a further assay the target is EGFR WT (Homo sapiens (Human), UniProt P00533). Nature of the assay: ErbB enzyme assay (CisBio HTRF-KinEASE-TK), EGFR WT. The class given is biochemical. The note with it: ATP at Km (25 μM), 1 h incubation. The gist of the method: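 Compounds, serially diluted three-fold, were incubated with enzyme for 1 h at ambient temperature. Detection reagents were then added for a further hour, and the 655/620 nm HTRF ratio was normalised to uninhibited and pre-quenched controls. IC50 was fitted with a four-parameter logistic model.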
Sequence of EGFR WT (P00533 25-1210): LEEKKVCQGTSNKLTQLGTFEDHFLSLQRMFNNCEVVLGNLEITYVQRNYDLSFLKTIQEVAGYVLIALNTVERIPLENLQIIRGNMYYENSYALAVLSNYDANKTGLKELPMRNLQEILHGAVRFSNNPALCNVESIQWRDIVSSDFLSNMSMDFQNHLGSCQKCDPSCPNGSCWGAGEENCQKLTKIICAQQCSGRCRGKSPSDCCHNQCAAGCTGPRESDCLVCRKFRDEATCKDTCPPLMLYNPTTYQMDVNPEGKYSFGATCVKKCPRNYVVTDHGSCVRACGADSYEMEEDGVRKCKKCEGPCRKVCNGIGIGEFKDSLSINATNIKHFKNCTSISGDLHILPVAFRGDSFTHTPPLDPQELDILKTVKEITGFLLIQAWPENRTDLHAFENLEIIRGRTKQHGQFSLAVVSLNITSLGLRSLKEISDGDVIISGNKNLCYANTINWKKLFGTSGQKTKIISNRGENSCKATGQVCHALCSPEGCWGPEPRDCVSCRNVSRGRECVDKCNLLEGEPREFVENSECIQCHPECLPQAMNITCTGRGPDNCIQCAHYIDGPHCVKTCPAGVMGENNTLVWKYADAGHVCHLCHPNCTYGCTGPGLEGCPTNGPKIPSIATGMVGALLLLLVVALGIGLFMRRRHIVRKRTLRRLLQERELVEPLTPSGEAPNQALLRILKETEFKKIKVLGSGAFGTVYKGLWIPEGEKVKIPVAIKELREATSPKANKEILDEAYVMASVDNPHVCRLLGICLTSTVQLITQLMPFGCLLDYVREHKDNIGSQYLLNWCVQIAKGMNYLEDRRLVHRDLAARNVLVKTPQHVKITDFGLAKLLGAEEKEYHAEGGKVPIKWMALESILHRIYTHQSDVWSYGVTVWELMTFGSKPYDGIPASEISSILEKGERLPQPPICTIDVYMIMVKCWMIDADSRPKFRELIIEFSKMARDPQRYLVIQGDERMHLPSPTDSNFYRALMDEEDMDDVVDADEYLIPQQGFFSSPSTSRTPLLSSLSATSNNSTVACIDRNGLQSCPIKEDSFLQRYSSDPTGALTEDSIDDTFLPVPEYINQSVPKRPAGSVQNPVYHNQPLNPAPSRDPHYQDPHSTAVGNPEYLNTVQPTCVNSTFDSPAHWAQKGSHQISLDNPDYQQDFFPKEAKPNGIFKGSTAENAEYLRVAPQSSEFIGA

This passage reports IC50 results from patent US20250129078A1, “ERBB2 INHIBITORS” (Cogent Biosciences, Inc., priority 2023, published 2025).

Some results are limits rather than exact numbers.

Sequence of ErbB2 V777L (P04626 23-1255 V777L): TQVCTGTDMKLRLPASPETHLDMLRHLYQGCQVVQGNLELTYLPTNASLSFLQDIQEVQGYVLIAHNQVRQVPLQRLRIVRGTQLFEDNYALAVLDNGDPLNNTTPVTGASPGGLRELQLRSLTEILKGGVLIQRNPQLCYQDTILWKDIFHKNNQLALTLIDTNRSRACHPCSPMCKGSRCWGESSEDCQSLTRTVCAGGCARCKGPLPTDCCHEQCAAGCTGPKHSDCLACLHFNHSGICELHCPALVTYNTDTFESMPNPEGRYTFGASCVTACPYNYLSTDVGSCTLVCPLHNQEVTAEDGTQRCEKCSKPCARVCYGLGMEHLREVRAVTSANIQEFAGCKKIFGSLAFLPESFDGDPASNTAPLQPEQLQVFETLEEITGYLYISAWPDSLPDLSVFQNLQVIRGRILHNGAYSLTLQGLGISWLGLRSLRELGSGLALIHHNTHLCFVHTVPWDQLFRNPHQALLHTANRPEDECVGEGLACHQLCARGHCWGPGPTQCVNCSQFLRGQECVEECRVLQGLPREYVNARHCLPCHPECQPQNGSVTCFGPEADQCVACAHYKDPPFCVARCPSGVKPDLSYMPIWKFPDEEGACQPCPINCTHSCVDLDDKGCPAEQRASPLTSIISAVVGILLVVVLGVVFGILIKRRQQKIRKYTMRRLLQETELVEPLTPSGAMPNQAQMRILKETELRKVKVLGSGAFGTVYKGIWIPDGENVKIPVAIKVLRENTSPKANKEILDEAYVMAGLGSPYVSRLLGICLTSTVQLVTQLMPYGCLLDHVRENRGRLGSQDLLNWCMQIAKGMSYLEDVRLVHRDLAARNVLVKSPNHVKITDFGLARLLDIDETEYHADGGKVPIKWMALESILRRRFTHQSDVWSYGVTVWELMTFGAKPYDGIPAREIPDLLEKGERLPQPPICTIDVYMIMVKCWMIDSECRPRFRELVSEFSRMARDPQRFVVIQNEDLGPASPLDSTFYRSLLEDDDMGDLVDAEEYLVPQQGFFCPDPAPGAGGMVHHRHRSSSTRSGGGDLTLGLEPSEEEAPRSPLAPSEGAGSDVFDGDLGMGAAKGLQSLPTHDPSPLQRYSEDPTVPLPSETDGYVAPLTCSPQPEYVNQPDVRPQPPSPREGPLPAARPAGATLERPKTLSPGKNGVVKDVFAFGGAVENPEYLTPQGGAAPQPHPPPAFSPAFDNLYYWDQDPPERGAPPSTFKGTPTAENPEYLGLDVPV

Take `C=C(COC)C(=O)N1CC(F)(F)C12CN(c1ncc3ncnc(Nc4ccc(Oc5ccc6c(c5)nnn6C)c(C)c4)c3n1)C2` [Compound 214, 1-(3,3-difluoro-6-(8-((3-methyl-4-((1-methyl-1H-benzo[d][1,2,3]triazol-5-yl)oxy)phenyl)amino)pyrimido [5,4-d]pyrimidin-2-yl)-1,6-diazaspiro[3.3]heptan-1-yl)-2-(methoxymethyl) prop-2-en-1-one]: the IC50 (commonly the concentration at which inhibition is half-maximal) against ErbB2 V777L was 100 to 500 nM; on EGFR WT, 500 to 1000 nM.

Consider `C=CC(=O)N1CCN(c2ncc3ncnc(Nc4ccc(Oc5cc6nnn(C)c6c(F)c5C)c(C)c4F)c3n2)C[C@H]1C` [Compound 176, (R)-1-(4-(8-((2-fluoro-4-((7-fluoro-1,6-dimethyl-1H-benzo[d][1,2,3]triazol-5-yl)oxy)-3-methylphenyl)amino)pyrimido[5,4-d]pyrimidin-2-yl)-2-methylpiperazin-1-yl)prop-2-en-1-one], for which the figures for the IC50 against ErbB2 V777L and against EGFR WT were 500 to 1000 nM and 100 to 500 nM, respectively.

Consider `C=CC(=O)N[C@@H]1CCCCN(c2ncc3ncnc(Nc4ccc(Oc5ccc6c(c5)nnn6C)c(C)c4F)c3n2)C1` [Compound 170, (R)-N-(1-(8-((2-fluoro-3-methyl-4-((1-methyl-1H-benzo[d][1,2,3]triazol-5-yl)oxy)phenyl)amino)pyrimido[5,4-d]pyrimidin-2-yl)azepan-3-yl)acrylamide], for which the IC50 at ErbB2 V777L and on EGFR WT was 100 to 500 nM in each case.

In the case of `C=CC(=O)N[C@H]1CCCN(c2ccc3ncnc(Nc4ccc(Oc5ccc6c(c5)nnn6C)c(C)c4F)c3n2)[C@@H]1C` (single isomer, unassigned) [Compound 348], the IC50 against ErbB2 V777L was 100 to 500 nM; against EGFR WT it was 50 to 100 nM.

Regarding `C=CC(=O)NC1CCN(c2ncc3ncnc(Nc4ccc(Oc5ccc6c(c5)nnn6C)c(C)c4)c3n2)CC1` [Compound 123, N-(1-(8-((3-methyl-4-((1-methyl-1H-benzo[d][1,2,3]triazol-5-yl)oxy)phenyl)amino)pyrimido[5,4-d]pyrimidin-2-yl)piperidin-4-yl)acrylamide], the IC50 against ErbB2 V777L and against EGFR WT was 100 to 500 nM each time.

`C=CC(=O)N(C)[C@H]1C[C@@H](Oc2ncc3ncnc(Nc4ccc(Oc5cc(F)c6c(c5)ncn6C)c(C)c4)c3n2)C1` [Compound 387, N-((1s,3s)-3-((8-((4-((7-fluoro-1-methyl-1H-benzo[d]imidazol-5-yl)oxy)-3-methylphenyl)amino)pyrimido[5,4-d]pyrimidin-2-yl)oxy)cyclobutyl)-N-methylacrylamide]: the IC50 on ErbB2 V777L was in the range of 50 to 100 nM; on EGFR WT, 100 to 500 nM.

For the molecule `C=CC(=O)NC1CCC(c2ccc3ncnc(Nc4ccc(Oc5ccc6c(c5)nnn6C)c(C)c4)c3n2)CC1` (centres unmarked) [Compound 400, N-(4-(4-((3-methyl-4-((1-methyl-1H-benzo[d][1,2,3]triazol-5-yl)oxy)phenyl)amino)pyrido[3,2-d]pyrimidin-6-yl)cyclohexyl)acrylamide], the IC50 on ErbB2 V777L lay within 100 to 500 nM; at EGFR WT, 50 to 100 nM.

For the molecule `C=CC(=O)N1C2CCC1CN(c1ccc3ncnc(Nc4cc(C)c(Oc5ccc6c(c5)nnn6C)cc4OC)c3n1)C2` [Compound 80, 1-(3-(4-((2-methoxy-5-methyl-4-((1-methyl-1H-benzo[d][1,2,3]triazol-5-yl)oxy)phenyl)amino)pyrido[3,2-d]pyrimidin-6-yl)-3,8-diazabicyclo[3.2.1]octan-8-yl)prop-2-en-1-one], the IC50 against ErbB2 V777L and on EGFR WT was 100 to 500 nM in each case.

Consider `COC/C=C/C(=O)N1CCN(c2ncc3ncnc(Nc4ccc(Oc5ccc6c(c5)nnn6C)c(C)c4)c3n2)CC1` [Compound 56, (E)-4-methoxy-1-(4-(8-((3-methyl-4-((1-methyl-1H-benzo[d][1,2,3]triazol-5-yl)oxy)phenyl)amino)pyrimido [5,4-d]pyrimidin-2-yl)piperazin-1-yl) but-2-en-1-one], for which the IC50 was 100 to 500 nM against ErbB2 V777L and 500 to 1000 nM against EGFR WT.

With `C=C(F)C(=O)N1CCN(c2ccc3ncnc(Nc4ccc(Oc5ccc6c(c5)nnn6C)c(C)c4)c3n2)C[C@H]1COC` [Compound 362, (S)-2-fluoro-1-(2-(methoxymethyl)-4-(4-((3-methyl-4-((1-methyl-1H-benzo[d][1,2,3]triazol-5-yl)oxy)phenyl)amino)pyrido[3,2-d]pyrimidin-6-yl)piperazin-1-yl)prop-2-en-1-one], the IC50 against ErbB2 V777L was 500 to 1000 nM; against EGFR WT, at least 1000 nM.

In the case of `C=CC(=O)N1CCN(c2ccc3ncnc(Nc4cc(C)c(Oc5ccc6c(c5)nnn6C)cc4OC(F)(F)F)c3n2)C[C@H]1C` [Compound 317, (R)-1-(2-methyl-4-(4-((5-methyl-4-((1-methyl-1H-benzo[d][1,2,3]triazol-5-yl)oxy)-2-(trifluoromethoxy)phenyl)amino)py-rido[3,2-d]pyrimidin-6-yl)piperazin-1-yl)prop-2-en-1-one], the IC50 against ErbB2 V777L and on EGFR WT was 100 to 500 nM throughout.

Turning to `C=CC(=O)N1CCCN(c2ccc3ncnc(Nc4ccc(Oc5ccn6ncnc6c5)c(C)c4)c3n2)C[C@@H]1C` [Compound 355, (S)-1-(4-(4-((4-([1,2,4]triazolo[1,5-a]pyridin-7-yloxy)-3-methylphenyl)amino)pyrido[3,2-d]pyrimidin-6-yl)-2-methyl-1,4-diazepan-1-yl)prop-2-en-1-one], the IC50 at ErbB2 V777L is 100 to 500 nM; at EGFR WT, at least 1000 nM.

Consider `C=CC(=O)N1C[C@H]2CN(c3ncc4ncnc(Nc5ccc(Oc6ccc7c(c6)nnn7C)c(C)c5)c4n3)C[C@H]21` [Compound 243, cis-1-((1r,5s)-3-(8-((3-methyl-4-((1-methyl-1H-benzo[d][1,2,3]triazol-5-yl)oxy)phenyl)amino)pyrimido[5,4-d]pyrimidin-2-yl)-3,6-diazabicyclo[3.2.0]heptan-6-yl)prop-2-en-1-one], for which the IC50 on ErbB2 V777L and at EGFR WT was 100 to 500 nM throughout.

With `C=CC(=O)N[C@@H]1CCCN(c2ccc3ncnc(Nc4cc(C)c(Oc5ccc6c(c5)nnn6C)cc4OC)c3n2)C1` [Compound 274, (R)-N-(1-(4-((2-methoxy-5-methyl-4-((1-methyl-1H-benzo[d][1,2,3]triazol-5-yl)oxy)phenyl)amino)pyrido[3,2-d]pyrimidin-6-yl)piperidin-3-yl)acrylamide], the IC50 at ErbB2 V777L was 500 to 1000 nM; at EGFR WT it was at least 1000 nM.

On to `C=CC(=O)N[C@H]1CN(c2ccc3ncnc(Nc4ccc(Oc5ccc6c(c5)nnn6C)c(C)c4)c3n2)CC(F)(F)C1` [Compound 342, (R)-N-(5,5-difluoro-1-(4-((3-methyl-4-((1-methyl-1H-benzo[d][1,2,3]triazol-5-yl)oxy)phenyl)amino)pyrido[3,2-d]pyrimidin-6-yl)piperidin-3-yl)acrylamide], for which the IC50 lay in the range of 100 to 500 nM against ErbB2 V777L and 500 to 1000 nM at EGFR WT.

As to `C=C(C)C(=O)N1CCN(c2ncc3ncnc(Nc4ccc(Oc5ccc6c(c5)nnn6C)c(C)c4)c3n2)CC1` [Compound 35, 2-methyl-1-(4-(8-((3-methyl-4-((1-methyl-1H-benzo[d][1,2,3]triazol-5-yl)oxy)phenyl)amino)pyrimido [5,4-d]pyrimidin-2-y1)piperazin-1-yl)prop-2-en-1-one], the IC50 on ErbB2 V777L was 500 to 1000 nM; against EGFR WT, at least 1000 nM.
